Assay results reported in US8883798B2, “Pyrimidine compounds inhibiting the formation of nitric oxide and prostaglandin E2, method of production thereof and use thereof” (Ustav Organicke Chemie a Biochemie Akademie Ved CR, V.V.I., priority 2011, dated 2014).

How the values were obtained:
[1] = rat, in vivo, po, 800 mg/kg
Experimental: (§1) 28. The plasma samples were taken in intervals during 48 hours. […] Plasma samples were prepared by centrifugation (3500 rpm, 10 min, 4° C.), transferred into appropriately labelled and sealed Eppendorf tubes and frozen at −20° C. until transportation to analyses. The plasma was split into two aliquots. All samples were transported in a sufficient amount of dry ice to the analytical laboratory.
(§2) The analysis was performed using HPLC/MS/MS method with the use of internal deuterated standard and precipitation separation method. The analytical method used 50 μl of plasma sample for each analysis. The method was validated for concentration as low as 10.0 ng of the compound in 1 ml of plasma. A weighted liner regression was evaluated over the concentration range from 10.0-10 000.0 ng of the compound in 1 ml of plasma. Spiked plasma samples were precipitated with the solution of internal standard. The sample supernatant was analyzed on HPL/MS/MS system TSQ-03.

[2] = Pilot toxic-kinetic study, single per-oral administration; conditions: female Wistar rats; single per-oral dose 800 mg/kg; plasma
Experimental: as §1, §2

[3] = test system: HUVEC; test: HUVEC cell proliferation (XTT assay); assay type: cell-based, human; conditions: 10 to 50 μmol/L, 8 hours

Compound: CCCCc1c(Cl)nc(N)nc1Cl [Substance 28]
- Toxic effect in animals [1]: No apparent toxic effect was observed
- Cmax = maximum concentration [2]: 337.2 ng/mL
- Terminal elimination rate half-life [2]: 15.9 h

Compound: CCCCc1c(Cl)nc(NC=O)nc1Cl [Substance 51]
- HUVEC cell proliferation [3]: did not influence HUVEC cell proliferation
